# Experimental data reported in patent US8741911B2, “Raf inhibitor compounds” (Eli Lilly and Company, priority 2012, dated 2014).
# Where two headings read alike, the source gives them in different places.
# How the values were obtained:
# [1] = test system: SK-Mel-5; test: CellTiter-Glo proliferation and viability assay; type: cell-based; conditions: Homo sapiens
# [2] = test system: LN 229; test: CellTiter-Glo proliferation and viability assay; type: cell-based; conditions: Homo sapiens
# [3] = test system: A2780; test: CellTiter-Glo proliferation and viability assay; type: cell-based; conditions: Homo sapiens
# [4] = test system: HL-60; test: CellTiter-Glo proliferation and viability assay; type: cell-based; conditions: Homo sapiens
# [5] = test system: SiHa; test: CellTiter-Glo proliferation and viability assay; type: cell-based; conditions: Homo sapiens
# [6] = test system: P30-OHK; test: CellTiter-Glo proliferation and viability assay; type: cell-based; conditions: Homo sapiens, read-out: Abs IC50
# [7] = test system: A375 V600E xenograft; test: A375 xenograft tumor model, efficacy; type: in vivo, rat; conditions: nude rats, oral twice a day 5, 10, 15, and 20 mg/kg for 21 days
# Procedure: (§1) Briefly, 10×10^6 cells (A375) or 5×10^6 cells (HCT-116) in a 1:1 medium and matrigel mix (0.2 mL total volume) are implanted by subcutaneous injection in the hind leg of nude female rats (NIH model No. NIHRNU-M from Taconic). A total of 8 rats in each group are used for the efficacy study, and a total of 3-4 rats in each group are used for a pharmacodynamic study. The Eli Lilly and Company Animal Care and Use Committee approved all the experimental protocols. […] Tumor growth and body weight are monitored over time to evaluate activity and signs of toxicity. Bidimensional measurements of tumors are performed twice a week and tumor volumes are calculated based on mid-axis length and mid-axis width. Tumor volume data are transformed to a log scale to equalize variance across time and treatment groups. The log volume data are analyzed with a two-way repeated measures analysis of variance by time and treatment using the MIXED® procedures in SAS® software (version 8.2). The correlation model for the repeated measures is spatial power. Treated groups are compared to the control group at each time point. The MIXED® procedure is also used separately for each treatment group to calculate adjusted means and standard errors at each time point. […]
# [8] = test system: NUGC-3; test: CellTiter-Glo proliferation and viability assay; type: cell-based; conditions: Homo sapiens
# [9] = test system: C3A; test: CellTiter-Glo proliferation and viability assay; type: cell-based; conditions: Homo sapiens
# [10] = test system: NCI-H1155; test: CellTiter-Glo proliferation and viability assay; type: cell-based; conditions: Homo sapiens
# [11] = test system: NCI-H2030; test: CellTiter-Glo proliferation and viability assay; type: cell-based; conditions: Homo sapiens
# [12] = test system: HEL; test: CellTiter-Glo proliferation and viability assay; type: cell-based; conditions: Homo sapiens, read-out: Abs IC50
# [13] = test system: NCI-H1793; test: CellTiter-Glo proliferation and viability assay; type: cell-based; conditions: Homo sapiens
# [14] = test system: NCI-H522; test: CellTiter-Glo proliferation and viability assay; type: cell-based; conditions: Homo sapiens
# [15] = test system: A375; test: CellTiter-Glo proliferation and viability assay; type: cell-based; conditions: Homo sapiens
# [16] = test system: HCT-116 K-Ras mutant B-Raf wild type xenograft; test: HCT-116 xenograft tumor model, efficacy; type: in vivo, rat; conditions: nude rats, oral twice a day 30 mg/kg for 21 days
# Procedure: as §1
smiles,measurement,setting,value
"CNc1ncc2cc(-c3cc(NC(=O)NCCC(C)(C)C)c(F)cc3C)c(C)nc2n1 [Example 1, 1-(3,3-Dimethylbutyl)-3-(2-fluoro-4-methyl-5-(7-methyl-2-(methylamino)pyrido[2,3-d]pyrimidin-6-yl)phenyl)urea]",IC50,[1]; read-out: Abs IC50,0.13 nM
same,IC50,[1]; read-out: Rel IC50,0.06 nM
same,IC50,[2]; read-out: Abs IC50,1.22 nM
same,IC50,[2]; read-out: Rel IC50,1.08 nM
same,IC50,[3]; read-out: Abs IC50,0.81 nM
same,IC50,[3]; read-out: Rel IC50,0.2 nM
same,IC50,[4]; read-out: Abs IC50,0.2 nM
same,IC50,[4]; read-out: Rel IC50,0.14 nM
same,IC50,[5]; read-out: Abs IC50,> 20 nM
same,IC50,[5]; read-out: Rel IC50,> 20 nM
same,IC50,[6],1.43 nM
same,animal body weight,[7],no animal body weight loss
same,tumor growth,[7]; all dose groups,tumor growth inhibition and tumor growth regression
same,IC50,[8]; read-out: Abs IC50,0.68 nM
same,IC50,[8]; read-out: Rel IC50,0.21 nM
same,IC50,[9]; read-out: Abs IC50,> 20 nM
same,IC50,[9]; read-out: Rel IC50,0.6 nM
same,IC50,[10]; read-out: Abs IC50,> 20 nM
same,IC50,[10]; read-out: Rel IC50,0.47 nM
same,IC50,[11]; read-out: Abs IC50,0.83 nM
same,IC50,[11]; read-out: Rel IC50,0.41 nM
same,IC50,[12],> 20 nM
same,IC50,[13]; read-out: Abs IC50,> 20 nM
same,IC50,[13]; read-out: Rel IC50,0.36 nM
same,IC50,[14]; read-out: Abs IC50,4.5 nM
same,IC50,[14]; read-out: Rel IC50,0.22 nM
same,IC50,"[15]; A-375, A375, B-Raf V600E, melanoma",9.2 nM
same,IC50,"[15]; A-375, parental A375 B-Raf V600E cells, comparison with A375res",11 nM
same,tumor growth,[16],statistically significant tumor growth inhibition
